The values that follow come from paper PMC5078040 (Oncotarget, 2016).

Test [1] addresses T1, PCTK3 (Homo sapiens, UniProt Q07002).
T1 construct: purchased DiscoveRx KINOMEscan
The experiment in a line: KinomeScan. The conditions noted are these: 1uM. Type of test: binding.

Test [2] addresses T2, PIK3CA(C420R) (Homo sapiens, UniProt P42336, C420R).
T2 construct: purchased DiscoveRx KINOMEscan
The experiment in a line: KinomeScan. Format: binding. As to conditions: 1uM.

The test system of test [3] is Hs 505T. Description: Anti-proliferative assay. Format: cell-based. As to conditions: Homo sapiens, CLL, 72 hours, CellTiter-Glo. The method, then:
(§1) Cells were grown in 96-well culture plates (3000-4000/well). […] Cell proliferation was determined after treatment with compounds for 72 hours. Cell viability was measured using the CellTiter–Glo Assay Kit (Promega, USA), according to the manufacturer's instructions, and luminescence was measured in a multi-label reader (Envision, PerkinElmer, USA). Data were normalized to control groups (DMSO) and represented by the mean of three independent measurements with standard error <20%. GI50 values were calculated using Prism 5.0 (GraphPad Software, San Diego, CA).

The subject of test [4] is OCI-AML-3. The experiment in a line: Anti-proliferative assay. The conditions noted are these: Homo sapiens; OCI-AML-3, AML-M4; 72 hours, CellTiter-Glo. Type of test: cell-based. Here is the method:
as §1

Test [5] deals with AMO-1. Description: Anti-proliferative assay. As to conditions: Homo sapiens, AMO1; AMO-1, MM; 72 hours, CellTiter-Glo. Type of test: cell-based. Here is the method:
as §1

Test [6] has as its system Ramos(new). The experiment in a line: Anti-proliferative assay. Type of test: cell-based. As to conditions: Homo sapiens, Burrkit lymphoma, 72 hours, CellTiter-Glo. Here is the method: as §1
For test [7], the system named is RPMI8226. Description: Anti-proliferative assay. Format: cell-based. As to conditions: Homo sapiens, RPMI-8226; RPMI8226, MM; 72 hours, CellTiter-Glo. Here is the method: as §1
Test [8] has as its system U937. Description: Anti-proliferative assay. Format: cell-based. The conditions noted are these: Homo sapiens, U-937; U937, AML; 72 hours, CellTiter-Glo. Here is the method: as §1
Test [9] concerns HL-60. The experiment in a line: Anti-proliferative assay. Type of test: cell-based. The conditions noted are these: Homo sapiens; HL-60, AML-M2; 72 hours, CellTiter-Glo. Here is the method:
as §1

Test [10] concerns SKM-1. Description: Anti-proliferative assay. The conditions noted are these: Homo sapiens; SKM-1, AML-M5; 72 hours, CellTiter-Glo. Format: cell-based. The method, then:
as §1

Test [11] relates to NALM-6. The experiment in a line: Anti-proliferative assay. Format: cell-based. As to conditions: Homo sapiens, 72 hours, CellTiter-Glo. Here is the method:
as §1

Test [12] deals with OCI-AML-2. Description: Anti-proliferative assay. Format: cell-based. As to conditions: Homo sapiens, OCI-AML2; OCI-AML-2, AML-M4; 72 hours, CellTiter-Glo. Here is the method:
as §1

Test [13] concerns MEC-1. The experiment in a line: Anti-proliferative assay. Type of test: cell-based. The conditions noted are these: Homo sapiens, MEC1; MEC-1, CLL; 72 hours, CellTiter-Glo. Here is the method: as §1
The subject of test [14] is HT. The experiment in a line: Anti-proliferative assay. Format: cell-based. The conditions noted are these: Homo sapiens, B-cell lymphoma, 72 hours, CellTiter-Glo. Here is the method:
as §1

For test [15], the system named is MV4-11. Description: Anti-proliferative assay. Type of test: cell-based. As to conditions: Homo sapiens; MV4-11, AML; 72 hours, CellTiter-Glo. Here is the method:
as §1

Test [16] relates to MOLM-13. Description: Anti-proliferative assay. Format: cell-based. As to conditions: Homo sapiens; MOLM-13, AML-M5; 72 hours, CellTiter-Glo. The method, then: as §1
Test [17] relates to NOMO-1. The experiment in a line: Anti-proliferative assay. Type of test: cell-based. As to conditions: Homo sapiens; NOMO-1, AML-M5; 72 hours, CellTiter-Glo. Here is the method: as §1
The test system of test [18] is JVM-2. Description: Anti-proliferative assay. Type of test: cell-based. The conditions noted are these: Homo sapiens; JVM-2, Mantle cell lymphoma; 72 hours, CellTiter-Glo. Here is the method:
as §1

Test [19] deals with MEC-2. The experiment in a line: Anti-proliferative assay. As to conditions: Homo sapiens, MEC2; MEC-2, CLL; 72 hours, CellTiter-Glo. Format: cell-based. Here is the method:
as §1

In test [20] the target is T3, YANK2 (Homo sapiens, UniProt Q9NY57).
T3 construct: purchased DiscoveRx KINOMEscan
The experiment in a line: KinomeScan. Format: binding. As to conditions: 1uM.

Test [21] deals with T4, PRKG2 (Homo sapiens, UniProt Q13237).
T4 construct: purchased DiscoveRx KINOMEscan
Description: KinomeScan. Format: binding. As to conditions: 1uM.

Test [22] concerns the target RPS6KA5(Kin.Dom.2-C-terminal) (Homo sapiens, UniProt O75582). Description: KinomeScan. Type of test: binding. As to conditions: 1uM.

T3 sequence (Q9NY57 whole entry): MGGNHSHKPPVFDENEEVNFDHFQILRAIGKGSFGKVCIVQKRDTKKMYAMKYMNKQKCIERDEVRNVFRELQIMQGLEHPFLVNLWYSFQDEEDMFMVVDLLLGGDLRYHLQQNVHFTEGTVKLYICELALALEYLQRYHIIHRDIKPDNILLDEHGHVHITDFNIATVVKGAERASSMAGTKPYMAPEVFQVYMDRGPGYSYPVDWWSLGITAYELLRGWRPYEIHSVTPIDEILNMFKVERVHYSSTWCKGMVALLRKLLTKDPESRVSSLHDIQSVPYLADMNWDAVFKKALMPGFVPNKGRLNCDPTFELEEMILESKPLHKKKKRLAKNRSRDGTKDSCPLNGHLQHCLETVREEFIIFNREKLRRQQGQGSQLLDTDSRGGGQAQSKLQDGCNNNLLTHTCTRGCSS
T4 sequence (Q13237 whole entry): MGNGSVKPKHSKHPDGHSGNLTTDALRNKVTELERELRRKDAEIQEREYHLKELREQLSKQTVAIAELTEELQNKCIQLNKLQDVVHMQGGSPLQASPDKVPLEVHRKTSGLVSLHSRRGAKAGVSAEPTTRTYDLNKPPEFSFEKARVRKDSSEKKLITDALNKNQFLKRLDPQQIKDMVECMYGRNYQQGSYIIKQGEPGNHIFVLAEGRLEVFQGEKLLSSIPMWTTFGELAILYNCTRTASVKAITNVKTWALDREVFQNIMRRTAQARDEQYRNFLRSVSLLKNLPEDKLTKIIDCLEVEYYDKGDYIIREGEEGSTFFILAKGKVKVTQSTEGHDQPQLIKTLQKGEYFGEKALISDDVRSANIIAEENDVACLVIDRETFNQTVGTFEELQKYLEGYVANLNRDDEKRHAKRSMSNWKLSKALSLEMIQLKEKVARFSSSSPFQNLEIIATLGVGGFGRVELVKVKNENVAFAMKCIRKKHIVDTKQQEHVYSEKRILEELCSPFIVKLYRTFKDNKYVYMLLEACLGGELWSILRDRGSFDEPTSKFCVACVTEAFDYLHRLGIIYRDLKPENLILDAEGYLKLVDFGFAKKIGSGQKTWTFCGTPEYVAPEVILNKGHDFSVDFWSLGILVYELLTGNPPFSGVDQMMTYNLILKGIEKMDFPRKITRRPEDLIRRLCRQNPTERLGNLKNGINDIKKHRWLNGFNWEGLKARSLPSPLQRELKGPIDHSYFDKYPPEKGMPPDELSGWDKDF
T2 sequence (P42336 whole entry C420R): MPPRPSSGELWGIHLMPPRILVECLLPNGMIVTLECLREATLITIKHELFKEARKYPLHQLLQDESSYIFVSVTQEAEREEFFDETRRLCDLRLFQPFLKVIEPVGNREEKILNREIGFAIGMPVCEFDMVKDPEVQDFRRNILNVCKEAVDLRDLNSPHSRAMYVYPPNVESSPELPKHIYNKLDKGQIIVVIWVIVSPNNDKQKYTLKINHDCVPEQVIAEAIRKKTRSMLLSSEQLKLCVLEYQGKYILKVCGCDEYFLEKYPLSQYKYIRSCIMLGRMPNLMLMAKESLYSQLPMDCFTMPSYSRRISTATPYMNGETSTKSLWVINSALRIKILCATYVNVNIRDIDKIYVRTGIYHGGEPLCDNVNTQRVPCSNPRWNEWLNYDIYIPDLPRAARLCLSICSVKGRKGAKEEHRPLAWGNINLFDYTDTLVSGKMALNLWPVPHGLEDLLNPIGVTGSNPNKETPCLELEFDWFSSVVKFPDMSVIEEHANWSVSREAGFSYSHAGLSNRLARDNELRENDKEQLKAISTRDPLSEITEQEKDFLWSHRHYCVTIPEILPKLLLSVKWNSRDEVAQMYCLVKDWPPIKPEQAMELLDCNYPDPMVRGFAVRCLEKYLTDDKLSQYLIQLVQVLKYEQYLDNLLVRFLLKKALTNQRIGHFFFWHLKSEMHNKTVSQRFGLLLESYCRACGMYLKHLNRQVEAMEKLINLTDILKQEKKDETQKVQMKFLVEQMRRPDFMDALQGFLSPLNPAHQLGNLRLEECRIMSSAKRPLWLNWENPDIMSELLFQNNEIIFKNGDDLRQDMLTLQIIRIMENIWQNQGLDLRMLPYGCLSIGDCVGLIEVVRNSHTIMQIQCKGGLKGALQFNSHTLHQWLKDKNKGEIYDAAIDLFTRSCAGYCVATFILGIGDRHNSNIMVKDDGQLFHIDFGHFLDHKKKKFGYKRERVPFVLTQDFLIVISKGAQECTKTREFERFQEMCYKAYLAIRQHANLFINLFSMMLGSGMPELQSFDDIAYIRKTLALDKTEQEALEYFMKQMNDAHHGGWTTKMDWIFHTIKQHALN
T1 sequence (Q07002 whole entry): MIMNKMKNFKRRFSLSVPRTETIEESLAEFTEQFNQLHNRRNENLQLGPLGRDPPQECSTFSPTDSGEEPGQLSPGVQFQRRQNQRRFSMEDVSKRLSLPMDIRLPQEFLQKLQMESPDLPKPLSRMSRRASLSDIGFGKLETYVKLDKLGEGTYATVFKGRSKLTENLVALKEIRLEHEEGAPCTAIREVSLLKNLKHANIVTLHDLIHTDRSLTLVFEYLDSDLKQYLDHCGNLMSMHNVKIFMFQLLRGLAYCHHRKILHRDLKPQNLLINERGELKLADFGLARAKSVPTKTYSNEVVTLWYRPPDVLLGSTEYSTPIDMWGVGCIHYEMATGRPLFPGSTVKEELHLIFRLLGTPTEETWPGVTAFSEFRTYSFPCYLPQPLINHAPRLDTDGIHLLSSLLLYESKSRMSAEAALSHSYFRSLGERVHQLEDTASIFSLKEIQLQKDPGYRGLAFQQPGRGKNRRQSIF
RPS6KA5(Kin.Dom.2-C-terminal), sequence (O75582 388-802 limits assumed): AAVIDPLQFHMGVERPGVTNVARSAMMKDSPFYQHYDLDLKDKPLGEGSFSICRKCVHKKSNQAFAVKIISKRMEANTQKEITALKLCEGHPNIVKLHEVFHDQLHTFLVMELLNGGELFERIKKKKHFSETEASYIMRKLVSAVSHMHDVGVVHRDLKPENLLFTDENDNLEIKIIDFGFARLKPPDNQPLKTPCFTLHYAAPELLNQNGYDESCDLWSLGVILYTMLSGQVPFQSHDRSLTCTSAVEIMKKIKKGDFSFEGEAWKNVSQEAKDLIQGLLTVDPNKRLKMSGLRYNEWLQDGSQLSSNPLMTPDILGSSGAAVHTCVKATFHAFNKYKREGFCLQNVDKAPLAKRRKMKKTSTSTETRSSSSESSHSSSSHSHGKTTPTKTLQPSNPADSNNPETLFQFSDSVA

For the compound `Cc1nc(NC(=O)[C@@H](N)C(C)C)sc1-c1cnc(Cl)c(NS(=O)(=O)c2ccccc2)c1` [PI3KD-IN-015], the “KinomeScan PCTK3” value in test [1] turned out to be 100. Further, the “KinomeScan PIK3CA(C420R)” value in test [2] was 4.5. For the same compound, the GI50 in test [3] is more than 10000 nM; in test [4], 3100 nM; in test [5], 1100 nM; in test [6] it was 2000 nM; in test [7], 2500 nM; in test [8], 5100 nM. For the same compound, the GI50 in test [9] is 2300 nM; in test [10] it was 2600 nM; in [11] it was 1800 nM; in test [12], 1800 nM; in [13], more than 10000 nM; in [14], 860 nM. The GI50 in [15] is 1900 nM; in test [16], 940 nM; in test [17], 1400 nM; in [18] it was more than 10000 nM; in [19] it was more than 10000 nM. In [20], the “KinomeScan YANK2” value was determined as 99. In addition, the “KinomeScan PRKG2” value in test [21] was found to be 100. Further, the “KinomeScan RPS6KA5(Kin.Dom.2-C-terminal)” value in test [22] is recorded as 100.
